Entries after “also recorded” stand apart in the source; their conditions may differ.
Tests used:
kappa opioid receptor = kappa opioid receptor (Homo sapiens, UniProt P41145); assay type: biochemical; design: purchased Millipore (Billerica, Mass.); host or cells: Chem-5 mammalian cell line
From the text: Membrane preparations of recombinant human kappa opioid receptor expressed in the mammalian cell line Chem-5 were obtained from Millipore (Billerica, Mass.). The effects of specific kappa opioid receptor ligands on the activation of the recombinant receptor were investigated by measuring G protein activation in vitro.
The assay reports the initial rates of activation of heterotrimeric G proteins (Gαii1β1γ2) on an agonist-bound receptor by measuring the accumulation of [^35S]-GTPγS (non-hydrolyzable analog of GTP) bound to the activated Gαi1 subunit. […] The G protein activation assay was conducted as follows (final concentrations in 50 μL reaction mixture are given in parentheses): the membrane sample was diluted into ice-cold 10 mM 3-(N-morpholino)propanesulfonic acid (MOPS) buffer to reach a protein concentration of 40 ng/μL. 10 μL of the diluted dispersion were dispensed into pre-siliconized glass tubes and mixed with the ligand in MOPS buffer containing 0.1% (w/v) BSA. Upon addition of a mixture of Gαi1 (100 nM) and Gβ1γ2 (500 nM), the tubes were incubated on ice for 30 minutes. The reaction was started by addition of MOPS buffer pH=7.5 (50 mM), EDTA (1 mM), MgCl2 (3 mM), GDP (4 μM), BSA (0.3% w/v), NaCl (100 mM), DTT (1 mM), and [^35S]-GTPγS (5 nM, 1250 Ci/mmol) followed by rapid transfer of the tubes to a water bath at 30° C. The incubation continued for 45 minutes. The reaction was terminated by addition of 2 mL of ice-cold stop solution, TNMg (20 mM Tris-HCl pH=8.0, 100 mM NaCl, and 25 mM MgCl2). The reaction mixture was rapidly filtered through nitrocellulose filters (Millipore). Filters were washed four times with 2 mL each of cold TNMg buffer, dried, placed in scintillation vials filled with ScintiSafe Econo F scintillation liquid (Fisher, Waltham, Mass.), and the radioactivity counted. Duplicate samples corresponding to every ligand concentration point were counted.

5-HT1A = molecular target: T1, 5-HT1A (Homo sapiens, UniProt P08908); assay: Primary radioligand binding screen; conditions: primary binding, 5-HT1A; dezocine 10 μM
T1 construct: expressed in transfected cells
Protocol: (§1) Evidence for interaction was based on the inhibition of the reference ligand-binding signal. […] Briefly, 50 μL aliquots of radioactive ligand (5 nM) were added to wells of a 96-well plate, which contained 25 μL of the reference or test ligands. We employed transfected cell lines expressing mainly human (unless otherwise specified) recombinant receptors, monoamine transporters, or ion channels for crude membrane preparation. Detailed information about our membrane preparation is well known in the art and can be obtained from publicly available protocol online. Crude membrane fractions containing the receptors were resuspended in standard binding buffer and 50 μL aliquots added to each well. The reactions were incubated at room temperature for 1.5 hours to allow for radioligand binding equilibration. Bound radioactivity was harvested by rapid filtration through a 0.3% polyethyleneimine-treated, 96-well filter mats using a 96-well Filtermate harvester. The dried filters were treated with melted scintillant and a Microbeta scintillation counter was utilized to measure the radioactivity retained on the filter.

5-HT1B = molecular target: T2, 5-HT1B (Homo sapiens, UniProt P28222); assay: Primary radioligand binding screen; conditions: primary binding, 5-HT1B; dezocine 10 μM
T2 construct: expressed in transfected cells
Protocol: as §1

5-HT1D = molecular target: T3, 5-HT1D (Homo sapiens, UniProt P28221); assay: Primary radioligand binding screen; conditions: primary binding, 5-HT1D; dezocine 10 μM
T3 construct: expressed in transfected cells
Protocol: as §1

5-HT1E = molecular target: T4, 5-HT1E (Homo sapiens, UniProt P28566); assay: Primary radioligand binding screen; conditions: primary binding, 5-HT1E; dezocine 10 μM
T4 construct: expressed in transfected cells
Protocol: as §1

5-HT2B = molecular target: T5, 5-HT2B (Homo sapiens, UniProt P41595); assay: Primary radioligand binding screen; conditions: primary binding, 5-HT2B; dezocine 10 μM
T5 construct: expressed in transfected cells
Protocol: as §1

5-HT2C = molecular target: T6, 5-HT2C (Homo sapiens, UniProt P28335); assay: Primary radioligand binding screen; conditions: primary binding, 5-HT2C; dezocine 10 μM
T6 construct: expressed in transfected cells
Protocol: as §1

5-HT3 = molecular target: T7, 5-HT3 (Homo sapiens, UniProt P46098); assay: Primary radioligand binding screen; conditions: primary binding, 5-HT3; dezocine 10 μM
T7 construct: expressed in transfected cells
Protocol: as §1

5-HT6 = molecular target: T8, 5-HT6 (Homo sapiens, UniProt P50406); assay: Primary radioligand binding screen; conditions: primary binding, 5-HT6; dezocine 10 μM
T8 construct: expressed in transfected cells
Protocol: as §1

5-HT7 = molecular target: T9, 5-HT7 (Homo sapiens, UniProt P34969); assay: Primary radioligand binding screen; conditions: primary binding, 5-HT7; dezocine 10 μM
T9 construct: expressed in transfected cells
Protocol: as §1

5-hT5A = molecular target: T10, 5-hT5A (Homo sapiens, UniProt P47898); assay: Primary radioligand binding screen; conditions: primary binding, 5-hT5A; dezocine 10 μM
T10 construct: expressed in transfected cells
Protocol: as §1

Alpha1A = molecular target: T11, Alpha1A (Homo sapiens, UniProt P35348); assay: Primary radioligand binding screen; conditions: primary binding, Alpha1A; dezocine 10 μM
T11 construct: expressed in transfected cells
Protocol: as §1

Alpha1B = molecular target: T12, Alpha1B (Homo sapiens, UniProt P35368); assay: Primary radioligand binding screen; conditions: primary binding, Alpha1B; dezocine 10 μM
T12 construct: expressed in transfected cells
Protocol: as §1

Alpha2A = molecular target: T13, Alpha2A (Homo sapiens, UniProt P08913); assay: Primary radioligand binding screen; conditions: primary binding, Alpha2A; dezocine 10 μM
T13 construct: expressed in transfected cells
Protocol: as §1

Alpha2C = molecular target: T14, Alpha2C (Homo sapiens, UniProt P18825); assay: Primary radioligand binding screen; conditions: primary binding, Alpha2C; dezocine 10 μM
T14 construct: expressed in transfected cells
Protocol: as §1

Beta2 = molecular target: T15, Beta2 (Homo sapiens, UniProt P07550); assay: Primary radioligand binding screen; conditions: primary binding, Beta2; dezocine 10 μM
T15 construct: expressed in transfected cells
Protocol: as §1

Beta3 = molecular target: T16, Beta3 (Homo sapiens, UniProt P13945); assay: Primary radioligand binding screen; conditions: primary binding, Beta3; dezocine 10 μM
T16 construct: expressed in transfected cells
Protocol: as §1

D1 = molecular target: T17, D1 (Homo sapiens, UniProt P21728); assay: Primary radioligand binding screen; conditions: primary binding, D1; dezocine 10 μM
T17 construct: expressed in transfected cells
Protocol: as §1

D2 = molecular target: T18, D2 (Homo sapiens, UniProt P14416); assay: Primary radioligand binding screen; conditions: primary binding, D2; dezocine 10 μM
T18 construct: expressed in transfected cells
Protocol: as §1

D3 = molecular target: T19, D3 (Homo sapiens, UniProt P35462); assay: Primary radioligand binding screen; conditions: primary binding, D3; dezocine 10 μM
T19 construct: expressed in transfected cells
Protocol: as §1

D4 = molecular target: T20, D4 (Homo sapiens, UniProt P21917); assay: Primary radioligand binding screen; conditions: primary binding, D4; dezocine 10 μM
T20 construct: expressed in transfected cells
Protocol: as §1

D5 = molecular target: T21, D5 (Homo sapiens, UniProt P21918); assay: Primary radioligand binding screen; conditions: primary binding, D5; dezocine 10 μM
T21 construct: expressed in transfected cells
Protocol: as §1

H2 = molecular target: T22, H2 (Homo sapiens, UniProt P25021); assay: Primary radioligand binding screen; conditions: primary binding, H2; dezocine 10 μM
T22 construct: expressed in transfected cells
Protocol: as §1

H3 = molecular target: T23, H3 (Homo sapiens, UniProt Q9Y5N1); assay: Primary radioligand binding screen; conditions: primary binding, H3; dezocine 10 μM
T23 construct: expressed in transfected cells
Protocol: as §1

M5 = molecular target: T24, M5 (Homo sapiens, UniProt P08912); assay: Primary radioligand binding screen; conditions: primary binding, M5; dezocine 10 μM
T24 construct: expressed in transfected cells
Protocol: as §1

NET = molecular target: T25, NET (Homo sapiens, UniProt P23975); assay: Primary radioligand binding screen; conditions: primary binding, NET; dezocine 10 μM
T25 construct: expressed in transfected cells
Protocol: as §1

[1] = molecular target: T26, norepinephrine transporter (NET) (Homo sapiens, UniProt P23975); assay: Secondary radioligand binding assay (affinity); conditions: FIG. 10A
T26 construct: expressed in transfected cells
Protocol: The secondary binding assay was performed only when the inhibition in the primary screen was over 50%. A secondary binding assay was utilized to determine the binding affinity for the identified receptor.
50 μL of a crude membrane fraction of cells expressing the respective receptors were applied to each well. Reaction incubation, harvesting and radioactivity measurement from the primary assay were repeated. Affinity is expressed as pKi (−log Ki).

Sigma 1 = Sigma 1 (Homo sapiens, UniProt Q99720); assay: Primary radioligand binding screen; design: expressed in transfected cells; conditions: primary binding, Sigma 1; dezocine 10 μM
Protocol: as §1

human cloned SERT = molecular target: T27, human cloned SERT (Homo sapiens, UniProt P31645); assay: Serotonin reuptake assay in HEK 293 cells; assay type: cell-based; conditions: mean±SE
T27 construct: expressed in transfected cells
Protocol: In brief, Human Embryonic Kidney 293 cells were plated in Poly-L-Lys (PLL) coated 384-well black clear bottom cell culture plates in DMEM+1% dFBS, at a density of 15,000 cells per well in a total volume of 40 μl. The cells were incubated for a minimum of 6 hours before use in the assays. The medium was removed and 20 μL of assay buffer (20 mM HEPES, 1×HBSS, pH 7.40) was added, followed by 5 μL of 5× drug solutions. The plate was incubated at 37° C. for 30 min. After the incubation, 25 μL of dye solution was added and fluorescence intensity was measured after […] at 37° C., using FlexStation II (bottom read mode, Excitation at 440 nm, Emission at 520 nm with 510 nm cut-off) from the Molecular Devices. […] The half maximal inhibitory concentration were determined and expressed as pIC50 (pIC50=−log (IC50)).

Sequence of kappa opioid receptor (P41145 whole entry): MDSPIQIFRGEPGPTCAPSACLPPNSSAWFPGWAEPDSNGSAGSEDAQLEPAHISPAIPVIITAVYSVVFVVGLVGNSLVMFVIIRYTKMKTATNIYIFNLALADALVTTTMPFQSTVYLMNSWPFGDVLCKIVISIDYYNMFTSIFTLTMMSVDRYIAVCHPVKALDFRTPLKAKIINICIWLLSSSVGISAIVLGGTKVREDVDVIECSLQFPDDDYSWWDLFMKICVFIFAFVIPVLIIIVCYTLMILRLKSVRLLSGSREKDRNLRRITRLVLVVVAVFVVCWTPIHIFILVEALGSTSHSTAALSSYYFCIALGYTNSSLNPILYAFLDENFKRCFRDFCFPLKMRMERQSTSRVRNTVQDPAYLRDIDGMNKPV
T26 sequence (P23975 whole entry): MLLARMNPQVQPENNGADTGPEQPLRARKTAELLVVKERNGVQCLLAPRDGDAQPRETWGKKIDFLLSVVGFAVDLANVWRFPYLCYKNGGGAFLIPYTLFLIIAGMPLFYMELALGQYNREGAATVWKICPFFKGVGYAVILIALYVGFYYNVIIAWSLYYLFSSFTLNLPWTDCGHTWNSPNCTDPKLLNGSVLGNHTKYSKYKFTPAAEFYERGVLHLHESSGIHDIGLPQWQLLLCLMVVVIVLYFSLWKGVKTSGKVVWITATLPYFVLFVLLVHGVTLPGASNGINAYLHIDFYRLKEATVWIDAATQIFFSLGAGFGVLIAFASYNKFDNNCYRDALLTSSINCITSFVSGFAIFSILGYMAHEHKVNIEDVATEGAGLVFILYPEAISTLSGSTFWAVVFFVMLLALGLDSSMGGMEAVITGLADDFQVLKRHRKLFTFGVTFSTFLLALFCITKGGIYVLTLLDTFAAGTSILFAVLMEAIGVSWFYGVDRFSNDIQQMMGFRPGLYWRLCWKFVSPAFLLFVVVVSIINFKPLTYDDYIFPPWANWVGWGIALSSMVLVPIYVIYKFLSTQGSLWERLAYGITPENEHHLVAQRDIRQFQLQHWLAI
T19 sequence (P35462 whole entry): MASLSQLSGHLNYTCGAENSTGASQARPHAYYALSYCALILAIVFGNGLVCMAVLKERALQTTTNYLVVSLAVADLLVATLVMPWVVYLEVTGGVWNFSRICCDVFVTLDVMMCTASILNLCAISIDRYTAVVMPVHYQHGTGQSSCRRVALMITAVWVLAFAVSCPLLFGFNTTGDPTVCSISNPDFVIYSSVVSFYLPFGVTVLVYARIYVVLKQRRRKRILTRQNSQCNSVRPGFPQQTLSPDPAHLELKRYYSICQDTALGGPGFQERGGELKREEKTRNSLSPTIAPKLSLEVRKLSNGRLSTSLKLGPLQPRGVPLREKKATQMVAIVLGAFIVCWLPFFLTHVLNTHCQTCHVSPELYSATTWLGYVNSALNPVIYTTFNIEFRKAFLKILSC
Sequence of Sigma 1 (Q99720 whole entry): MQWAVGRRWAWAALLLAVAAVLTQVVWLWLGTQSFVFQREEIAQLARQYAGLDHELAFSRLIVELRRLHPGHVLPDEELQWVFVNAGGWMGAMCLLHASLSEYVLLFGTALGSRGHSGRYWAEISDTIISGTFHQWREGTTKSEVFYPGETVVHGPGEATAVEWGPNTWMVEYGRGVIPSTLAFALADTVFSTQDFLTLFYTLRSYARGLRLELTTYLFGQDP
T9 sequence (P34969 whole entry): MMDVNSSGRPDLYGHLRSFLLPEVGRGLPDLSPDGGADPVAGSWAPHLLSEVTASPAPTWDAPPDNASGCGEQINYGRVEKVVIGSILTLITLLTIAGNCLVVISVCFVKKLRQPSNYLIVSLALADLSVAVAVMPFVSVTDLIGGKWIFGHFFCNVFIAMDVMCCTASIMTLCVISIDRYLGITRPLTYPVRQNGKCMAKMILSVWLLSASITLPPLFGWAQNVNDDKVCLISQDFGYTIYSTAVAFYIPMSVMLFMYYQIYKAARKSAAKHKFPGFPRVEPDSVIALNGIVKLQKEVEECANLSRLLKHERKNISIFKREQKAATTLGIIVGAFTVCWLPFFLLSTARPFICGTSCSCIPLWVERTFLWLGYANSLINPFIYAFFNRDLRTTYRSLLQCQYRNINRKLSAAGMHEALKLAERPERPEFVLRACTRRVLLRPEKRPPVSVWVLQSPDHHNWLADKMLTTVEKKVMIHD
T16 sequence (P13945 whole entry): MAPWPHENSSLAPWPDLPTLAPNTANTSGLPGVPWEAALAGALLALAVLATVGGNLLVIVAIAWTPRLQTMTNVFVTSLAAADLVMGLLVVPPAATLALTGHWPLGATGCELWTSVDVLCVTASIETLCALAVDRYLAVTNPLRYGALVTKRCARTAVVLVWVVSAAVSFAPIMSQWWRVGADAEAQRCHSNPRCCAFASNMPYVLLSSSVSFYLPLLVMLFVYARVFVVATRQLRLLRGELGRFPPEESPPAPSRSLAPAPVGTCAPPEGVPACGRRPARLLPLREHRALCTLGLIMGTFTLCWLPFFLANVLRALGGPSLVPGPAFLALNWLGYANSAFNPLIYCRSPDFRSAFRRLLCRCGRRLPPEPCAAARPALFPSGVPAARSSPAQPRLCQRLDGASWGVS
T18 sequence (P14416 whole entry): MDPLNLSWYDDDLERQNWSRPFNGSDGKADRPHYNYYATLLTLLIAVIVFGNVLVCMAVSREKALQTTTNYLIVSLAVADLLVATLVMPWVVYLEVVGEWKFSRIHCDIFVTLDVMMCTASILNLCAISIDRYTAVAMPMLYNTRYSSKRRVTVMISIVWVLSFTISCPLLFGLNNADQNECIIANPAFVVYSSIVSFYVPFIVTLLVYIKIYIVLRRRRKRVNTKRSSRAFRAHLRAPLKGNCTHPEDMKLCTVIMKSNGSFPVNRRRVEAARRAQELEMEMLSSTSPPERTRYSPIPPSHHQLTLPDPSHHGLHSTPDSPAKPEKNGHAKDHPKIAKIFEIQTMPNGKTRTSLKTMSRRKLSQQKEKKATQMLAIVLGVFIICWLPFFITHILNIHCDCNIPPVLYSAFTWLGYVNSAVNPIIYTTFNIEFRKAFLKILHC
T15 sequence (P07550 whole entry): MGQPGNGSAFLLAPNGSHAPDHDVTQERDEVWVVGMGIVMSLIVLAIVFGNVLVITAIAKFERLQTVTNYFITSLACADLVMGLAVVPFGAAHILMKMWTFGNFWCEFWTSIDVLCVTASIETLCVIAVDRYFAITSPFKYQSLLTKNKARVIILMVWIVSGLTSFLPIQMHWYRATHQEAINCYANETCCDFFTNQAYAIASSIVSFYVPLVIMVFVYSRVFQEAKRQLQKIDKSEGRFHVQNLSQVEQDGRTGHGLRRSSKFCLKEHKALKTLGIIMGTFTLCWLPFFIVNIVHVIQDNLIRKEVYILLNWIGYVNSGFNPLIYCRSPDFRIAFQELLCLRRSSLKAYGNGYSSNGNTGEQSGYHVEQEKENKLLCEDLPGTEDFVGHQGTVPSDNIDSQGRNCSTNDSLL
T14 sequence (P18825 whole entry): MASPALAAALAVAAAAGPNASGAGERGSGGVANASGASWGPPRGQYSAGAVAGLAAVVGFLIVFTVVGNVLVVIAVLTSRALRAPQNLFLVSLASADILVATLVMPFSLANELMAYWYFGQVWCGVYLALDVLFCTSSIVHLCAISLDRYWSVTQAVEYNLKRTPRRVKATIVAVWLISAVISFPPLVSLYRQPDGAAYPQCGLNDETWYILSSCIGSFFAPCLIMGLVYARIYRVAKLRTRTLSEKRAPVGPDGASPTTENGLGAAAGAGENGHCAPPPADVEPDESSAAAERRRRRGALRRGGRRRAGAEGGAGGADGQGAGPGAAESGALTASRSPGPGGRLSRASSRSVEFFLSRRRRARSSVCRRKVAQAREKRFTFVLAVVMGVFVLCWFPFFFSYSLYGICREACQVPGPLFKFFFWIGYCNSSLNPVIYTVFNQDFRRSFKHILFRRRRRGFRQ
T2 sequence (P28222 whole entry): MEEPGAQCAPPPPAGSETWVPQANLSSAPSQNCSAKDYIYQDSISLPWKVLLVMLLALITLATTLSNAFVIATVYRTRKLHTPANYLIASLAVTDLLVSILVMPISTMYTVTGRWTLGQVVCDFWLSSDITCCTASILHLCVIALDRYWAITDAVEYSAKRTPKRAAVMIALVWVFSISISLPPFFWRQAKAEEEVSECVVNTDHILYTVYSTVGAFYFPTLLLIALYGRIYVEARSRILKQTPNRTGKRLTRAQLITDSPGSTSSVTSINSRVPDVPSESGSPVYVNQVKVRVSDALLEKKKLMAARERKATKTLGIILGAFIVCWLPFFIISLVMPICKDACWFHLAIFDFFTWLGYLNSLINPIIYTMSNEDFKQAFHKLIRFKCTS
T11 sequence (P35348 whole entry): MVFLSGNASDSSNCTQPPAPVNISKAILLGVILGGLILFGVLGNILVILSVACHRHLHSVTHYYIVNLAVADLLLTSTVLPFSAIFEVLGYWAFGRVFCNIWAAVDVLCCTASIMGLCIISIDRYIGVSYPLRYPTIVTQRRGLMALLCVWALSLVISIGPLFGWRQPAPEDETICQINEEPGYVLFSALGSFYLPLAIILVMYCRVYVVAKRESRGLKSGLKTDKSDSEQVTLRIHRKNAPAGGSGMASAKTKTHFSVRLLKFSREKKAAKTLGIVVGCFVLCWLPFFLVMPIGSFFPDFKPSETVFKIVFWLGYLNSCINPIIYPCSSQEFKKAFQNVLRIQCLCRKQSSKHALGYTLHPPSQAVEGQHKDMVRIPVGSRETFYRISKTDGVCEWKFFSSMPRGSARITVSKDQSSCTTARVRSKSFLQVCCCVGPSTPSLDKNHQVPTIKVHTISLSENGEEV
T25 sequence (P23975 whole entry): as the sequence (P23975 whole entry) above

## Oc1ccc2c3c1O[C@H]1c4[nH]c5c(c4C[C@@]4(O)[C@@H](C2)N(CC2CC2)CC[C@]314)C[C@@]1(O)[C@H]2Cc3ccc(O)c4c3[C@@]1(CCN2CC1CC1)[C@H]5O4 [nor-binaltorphimine]
Kappa opioid receptor
  G protein activation in the presence of kappa receptor: inverse kappa agonist; also recorded: did not induce G protein activation

## C=CCN1CC[C@]23c4c5ccc(O)c4O[C@H]2C(=O)CC[C@@]3(O)[C@H]1C5 [Naloxone]
5-HT1A
  % inhibition: 5.8%
5-HT1B
  % inhibition: −1%
5-HT1D
  % inhibition: −1.6%
5-HT1E
  % inhibition: −5.7%
5-HT2B
  % inhibition: 49.6%
5-HT2C
  % inhibition: 21.1%
5-HT3
  % inhibition: 0%
5-HT6
  % inhibition: 27.6%
5-HT7
  % inhibition: 60.3%
5-hT5A
  % inhibition: 28.9%
Alpha1A
  % inhibition: 4%
Alpha1B
  % inhibition: −2%
Alpha2A
  % inhibition: 12.9%
Alpha2C
  % inhibition: 22.7%
Beta2
  % inhibition: −2.6%
Beta3
  % inhibition: −3.1%
D1
  % inhibition: 5.5%
D2
  % inhibition: −0.8%
D3
  % inhibition: 1.9%
D4
  % inhibition: −5.8%
D5
  % inhibition: 2.1%
H2
  % inhibition: 57.4%
H3
  % inhibition: 8.9%
M5
  % inhibition: 32.1%
NET
  % inhibition: 43.8%
[1]
  interaction (binding activity) with NET: No significant binding activity
Sigma 1
  % inhibition: 9.6%

## CN1CC[C@]23c4c5ccc(O)c4O[C@H]2[C@@H](O)C=C[C@H]3[C@H]1C5 [Morphine]
[1]
  interaction (binding activity) with NET: No significant binding activity

## CNCCC(Oc1ccccc1OC)c1ccccc1 (stereo not drawn) [nisoxetine]
Human cloned SERT
  pIC50 of SERT (serotonin reuptake): 5.99±0.07
